From BindingDB's records for doi:10.3109/14756360903027816 (The University of Montana, 2010)

Target: T1, Acetylcholinesterase (Mus musculus, UniProt P21836)
T1 sequence (P21836 whole entry): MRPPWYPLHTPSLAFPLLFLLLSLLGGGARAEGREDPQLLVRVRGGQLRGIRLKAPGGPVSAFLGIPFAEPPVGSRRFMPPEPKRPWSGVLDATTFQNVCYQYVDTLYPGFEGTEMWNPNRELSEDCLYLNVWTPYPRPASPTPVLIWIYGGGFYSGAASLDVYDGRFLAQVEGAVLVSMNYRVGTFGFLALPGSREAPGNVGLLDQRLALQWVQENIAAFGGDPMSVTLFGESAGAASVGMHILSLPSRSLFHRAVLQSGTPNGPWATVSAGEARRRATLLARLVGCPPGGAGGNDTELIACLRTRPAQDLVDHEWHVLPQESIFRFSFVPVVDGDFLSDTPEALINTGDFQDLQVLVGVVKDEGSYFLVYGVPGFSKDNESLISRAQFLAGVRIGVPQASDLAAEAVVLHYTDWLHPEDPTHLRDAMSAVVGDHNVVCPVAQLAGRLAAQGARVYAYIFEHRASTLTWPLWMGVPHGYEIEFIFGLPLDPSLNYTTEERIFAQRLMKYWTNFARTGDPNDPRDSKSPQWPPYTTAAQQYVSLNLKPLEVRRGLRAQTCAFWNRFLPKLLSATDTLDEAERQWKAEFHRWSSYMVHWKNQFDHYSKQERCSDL
Test: AChE Assay
Settings: pH 7.6; 20 °C
Method: The inactivation of AChEs was determined using a colorimetric assay [Ellman et al., Biochem. Pharmacol., 7:88-95]. […] DTNB solution and a solution of AChE yielding a 0.1 Abs unit/min rate in PBS (2.80 mL; pH 7.6) were placed in a cuvette at 20°C. To this solution was added either: (a) 10 μL of ACN as the control, or (b) 10 μL of ligand solution (10 mM in ACN). […] The final concentrations of the reactants during enzyme assay were: 0.33 mM DTNB, 0.59 mM ATCh-I, 0.58 mM NaHCO3, and 0.05 mM inhibitor.

| SMILES | IC50 |
| --- | --- |
| C#CCNS(=O)(=O)c1ccc(-c2c3ccc(=[N+](CC)CC)cc-3oc3cc(N(CC)CC)ccc23)c(S(=O)(=O)[O-])c1 [Lissamine propargyl sulfonamide (6)] | 50 nM |
| C#CCNS(=O)(=O)c1ccc(C2=c3cc4c5c(c3Oc3c2cc2c6c3CCCN6CCC2)CCC[N+]=5CCC4)c(S(=O)(=O)[O-])c1 [Texas Red propargyl sulfonamide (7)] | 700 nM |
